Assay results from article PMC2989642 (The European journal of neuroscience, 2010).
“And” between values parts separate entries of the source, which are not always exact repeats. Equal values may be shown once. Read-outs that look alike come from different tables or passages of the source.

What was measured:
α7 receptors = α7 receptors (Gallus gallus, UniProt P22770); format: cell-based, chick
α7 nAChRs [1] = biological target: T1, α7 nAChRs (Mus musculus, UniProt P49582); format: cell-based
α7 nAChRs [2] = format: cell-based, mouse
[3] = biological target: α3β4 receptors (in the α5β2 KO) (Mus musculus, UniProt Q8R493+Q8R4G9); assay: cell-based
hα3β4 = conditions: ref Nelson et al., 2001, cited from earlier work
[4] = biological target: α3β4α5 receptors (in the β2 KO) (Mus musculus, UniProt Q8R493+Q8R4G9); format: cell-based
human α3β4 receptors = conditions: ref Chavez-Noriega et al., 1997; cited from earlier work
rα3β4 receptors = conditions: ref Wong et al., 1995; cited from earlier work
[5] = biological target: α3β2 receptors (in the α5β4 KO) (Mus musculus, UniProt Q8R4G9+Q9ERK7); assay: cell-based; format: cell-based
hα3α5β4 = conditions: probed with 300 μM ACh; ref Nelson et al., 2001; cited from earlier work
α7 nAChRs [6] = format: cell-based, mouse; remark: listed apart in the source
α7 nAChRs [7] = biological target: T1, α7 nAChRs; format: cell-based; remark: listed apart in the source
[8] = tested on: SCG neurons from α5α7β2 KO animals; format: cell-based, mouse
[9] = biological target: hetero-oligomeric nAChR binding sites in SCG membranes (Mus musculus, UniProt Q8R493+Q8R4G9)
[10] = biological target: nAChRs in adult (intact) mouse SCG; conditions: read-out: KD of [3H]-epibatidine binding, ref Del Signore et al., 2002; cited from earlier work

α3β4 receptors (in the α5β2 KO), sequence (Q8R4G9 26-499): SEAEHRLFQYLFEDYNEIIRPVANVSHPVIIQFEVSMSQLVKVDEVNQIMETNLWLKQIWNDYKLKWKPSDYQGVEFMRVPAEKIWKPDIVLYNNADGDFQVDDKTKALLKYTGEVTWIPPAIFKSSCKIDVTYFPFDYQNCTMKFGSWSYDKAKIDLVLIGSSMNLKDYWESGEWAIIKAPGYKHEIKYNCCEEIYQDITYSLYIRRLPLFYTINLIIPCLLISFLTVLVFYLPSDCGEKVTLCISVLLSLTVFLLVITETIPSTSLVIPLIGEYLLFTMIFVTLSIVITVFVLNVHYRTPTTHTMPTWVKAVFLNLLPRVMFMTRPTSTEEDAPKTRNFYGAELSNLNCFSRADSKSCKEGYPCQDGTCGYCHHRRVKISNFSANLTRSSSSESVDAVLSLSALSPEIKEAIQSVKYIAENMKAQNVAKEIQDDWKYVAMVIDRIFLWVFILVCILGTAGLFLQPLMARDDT
α3β4 receptors (in the α5β2 KO), sequence (Q8R493 21-495): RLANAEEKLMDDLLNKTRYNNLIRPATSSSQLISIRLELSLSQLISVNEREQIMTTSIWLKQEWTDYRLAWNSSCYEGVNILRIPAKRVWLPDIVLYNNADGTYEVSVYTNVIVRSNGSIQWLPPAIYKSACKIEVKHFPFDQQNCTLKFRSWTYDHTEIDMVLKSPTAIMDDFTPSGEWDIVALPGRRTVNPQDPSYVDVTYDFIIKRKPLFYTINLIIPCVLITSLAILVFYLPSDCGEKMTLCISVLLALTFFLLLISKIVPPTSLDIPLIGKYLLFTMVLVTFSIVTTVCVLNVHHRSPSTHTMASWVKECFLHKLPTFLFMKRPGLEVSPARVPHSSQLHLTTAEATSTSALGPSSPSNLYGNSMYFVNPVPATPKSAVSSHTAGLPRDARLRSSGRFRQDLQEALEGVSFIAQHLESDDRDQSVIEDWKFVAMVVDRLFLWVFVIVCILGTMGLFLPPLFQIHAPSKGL
α3β2 receptors (in the α5β4 KO), sequence (Q8R4G9 26-499): as the sequence (Q8R4G9 26-499) above
α3β2 receptors (in the α5β4 KO), sequence (Q9ERK7 26-501): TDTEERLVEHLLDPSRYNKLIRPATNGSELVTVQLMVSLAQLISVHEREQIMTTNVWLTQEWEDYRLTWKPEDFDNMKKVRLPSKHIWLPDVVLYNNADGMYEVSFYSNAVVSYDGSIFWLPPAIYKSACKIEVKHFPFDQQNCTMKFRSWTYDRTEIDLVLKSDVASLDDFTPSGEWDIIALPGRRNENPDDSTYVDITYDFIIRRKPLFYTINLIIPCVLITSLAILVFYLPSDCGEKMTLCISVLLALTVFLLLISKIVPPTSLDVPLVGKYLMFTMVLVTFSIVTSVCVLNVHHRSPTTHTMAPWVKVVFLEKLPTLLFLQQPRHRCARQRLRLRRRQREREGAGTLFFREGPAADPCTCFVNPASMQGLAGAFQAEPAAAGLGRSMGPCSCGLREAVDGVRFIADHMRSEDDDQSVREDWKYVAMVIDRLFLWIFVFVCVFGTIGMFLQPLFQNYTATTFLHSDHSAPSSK
α3β4α5 receptors (in the β2 KO), sequence (Q8R4G9 26-499): as the sequence (Q8R4G9 26-499) above
α3β4α5 receptors (in the β2 KO), sequence (Q8R493 21-495): as the sequence (Q8R493 21-495) above
α3β4α5 receptors (in the β2 KO), sequence (Q2MKA5 30-467 partner): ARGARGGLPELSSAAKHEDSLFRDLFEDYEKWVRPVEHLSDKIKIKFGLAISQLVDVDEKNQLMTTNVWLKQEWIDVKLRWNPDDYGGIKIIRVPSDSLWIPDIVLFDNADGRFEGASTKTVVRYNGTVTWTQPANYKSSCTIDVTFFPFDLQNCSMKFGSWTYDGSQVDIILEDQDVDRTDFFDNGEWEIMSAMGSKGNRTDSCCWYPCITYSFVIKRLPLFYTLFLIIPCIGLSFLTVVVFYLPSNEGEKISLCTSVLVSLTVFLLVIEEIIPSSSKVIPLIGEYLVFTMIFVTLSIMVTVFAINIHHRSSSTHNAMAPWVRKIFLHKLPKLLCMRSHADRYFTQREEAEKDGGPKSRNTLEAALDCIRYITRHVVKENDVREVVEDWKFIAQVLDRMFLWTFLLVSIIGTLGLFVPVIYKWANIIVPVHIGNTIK
T1 sequence (P49582 23-502): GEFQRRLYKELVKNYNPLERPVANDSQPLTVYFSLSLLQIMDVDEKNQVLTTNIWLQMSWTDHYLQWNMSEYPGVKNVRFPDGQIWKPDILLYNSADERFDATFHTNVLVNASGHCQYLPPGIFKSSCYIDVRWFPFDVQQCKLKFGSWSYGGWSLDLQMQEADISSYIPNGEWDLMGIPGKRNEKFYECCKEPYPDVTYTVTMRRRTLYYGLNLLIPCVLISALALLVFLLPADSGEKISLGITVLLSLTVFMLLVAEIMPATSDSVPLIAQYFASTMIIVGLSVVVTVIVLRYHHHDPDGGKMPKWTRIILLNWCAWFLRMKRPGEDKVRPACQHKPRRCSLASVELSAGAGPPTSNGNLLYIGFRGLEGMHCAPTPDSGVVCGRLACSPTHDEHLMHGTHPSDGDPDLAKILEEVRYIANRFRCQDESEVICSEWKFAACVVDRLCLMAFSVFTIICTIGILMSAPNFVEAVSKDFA
hetero-oligomeric nAChR binding sites in SCG membranes, sequence (Q8R4G9 26-499): as the sequence (Q8R4G9 26-499) above
hetero-oligomeric nAChR binding sites in SCG membranes, sequence (Q8R493 21-495): as the sequence (Q8R493 21-495) above
hetero-oligomeric nAChR binding sites in SCG membranes, sequence (Q2MKA5 30-467 partner): as the sequence (Q2MKA5 30-467 partner) above
hetero-oligomeric nAChR binding sites in SCG membranes, sequence (Q9ERK7 26-501 partner): as the sequence (Q9ERK7 26-501) above
α7 receptors, sequence (P22770 23-502 limits assumed): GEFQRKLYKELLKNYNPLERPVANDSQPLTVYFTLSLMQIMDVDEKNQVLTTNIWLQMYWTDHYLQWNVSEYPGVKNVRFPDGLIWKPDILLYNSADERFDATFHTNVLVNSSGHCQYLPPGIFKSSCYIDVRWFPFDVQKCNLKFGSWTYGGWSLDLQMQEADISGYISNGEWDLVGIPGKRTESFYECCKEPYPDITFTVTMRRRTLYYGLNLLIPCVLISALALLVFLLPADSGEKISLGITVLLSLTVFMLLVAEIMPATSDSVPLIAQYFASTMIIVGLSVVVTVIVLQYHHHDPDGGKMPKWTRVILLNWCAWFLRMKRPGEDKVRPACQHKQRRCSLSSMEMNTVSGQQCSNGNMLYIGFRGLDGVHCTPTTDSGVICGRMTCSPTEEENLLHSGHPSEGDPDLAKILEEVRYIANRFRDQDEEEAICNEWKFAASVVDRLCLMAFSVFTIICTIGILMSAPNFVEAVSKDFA

Q: With C[N+](C)(C)CCO [choline] as the compound, how does the “Peak currents in response to 10 mM choline” value (α7 receptors) read?
A: 40.4 ± 3.8 pA/pF

Q: What about the “currents induced by choline” value (α7 nAChRs [1]) of the same compound?
A: negligible currents

Q: What about the “currents induced by choline” value (α7 nAChRs [2]) of the same compound?
A: slowly decaying currents of considerable amplitude

Q: With O=c1cccc2n1C[C@@H]1CNC[C@H]2C1 [Cytisine, cytisine] as the compound, how does the Hill coefficient [3] read?
A: 1.44 ± 0.06

Q: What about the “low-concentration potency ratio cytisine/DMPP” value [3] of the same compound?
A: 1.23

Q: And the “potency ratio cytisine/DMPP (low concentration)” value [3]?
A: 1.34

Q: What about the EC50 ([3]; EC50) of the same compound?
A: 34.5 ± 2.26 µM

Q: What about the EC50 ([3]; fictitious EC50) of the same compound?
A: 21.7 µM

Q: And the “potency ratio cytisine/DMPP” value (hα3β4)?
A: 1.29

Q: And the EC50 [4]?
A: 37.7 ± 2.43 µM

Q: What about the Hill coefficient [4] of the same compound?
A: 1.10 ± 0.02

Q: What about the “low-concentration potency ratio cytisine/DMPP” value [4] of the same compound?
A: 0.76 ± 0.04 and 0.76

Q: What about the “potency ratio cytisine/DMPP (low concentration)” value [4] of the same compound?
A: 0.67

Q: What about the EC50 ([4]; read-out: fictitious EC50) of the same compound?
A: 26.2 µM

Q: What about the “potency ratio cytisine/DMPP” value (human α3β4 receptors) of the same compound?
A: 4

Q: What about the “potency ratio cytisine/DMPP” value (rα3β4 receptors) of the same compound?
A: 1.47

Q: With CC(=O)OCC[N+](C)(C)C [ACh, acetylcholine] as the compound, how does the “Af (fast amplitude, share of current)” value [3] read?
A: 13.0 ± 0.7 % ^1

Q: And the “Af + As + C (total amplitude)” value [3]?
A: 3747 ± 215 pA ^6

Q: What about the “As (slow amplitude, share of current)” value [3] of the same compound?
A: 56.3 ± 2.3 % ^3

Q: What about the “C (plateau, share of current)” value [3] of the same compound?
A: 30.5 ± 2.8 % ^5

Q: What about the Hill coefficient [3] of the same compound?
A: 1.60 ± 0.05

Q: And the “Tf (fast decay time constant)” value [3]?
A: 444 ± 22 (msec) ^2

Q: And the “Ts (slow decay time constant)” value [3]?
A: 5495 ± 496 (msec) ^4

Q: What about the decay time constant (hα3β4; probed with 300 μM ACh) of the same compound?
A: 495 ms

Q: What about the “Af (fast amplitude, share of current)” value [5] of the same compound?
A: 50.5 ± 2.1%

Q: And the “Af + As + C (total amplitude)” value [5]?
A: 1166 ± 77 pA

Q: And the “Af, fast” value [5]?
A: −1171 pA

Q: What about the “As (slow amplitude, share of current)” value [5] of the same compound?
A: 36.2 ± 1.7%

Q: What about the “As, slow” value [5] of the same compound?
A: −472 pA

Q: And the “C (plateau, share of current)” value [5]?
A: 13.2 ± 1.0%

Q: What about the EC50 [5] of the same compound?
A: 169 ± 25.2 µM

Q: And the Hill coefficient [5]?
A: 0.67 ± 0.04

Q: And the “Tf, fast” value [5]?
A: 115 ms

Q: What about the “Ts, slow” value [5] of the same compound?
A: 1477 ms

Q: What about the plateau [5] of the same compound?
A: −140 pA

Q: And the “Af (fast amplitude, share of current)” value [4]?
A: 16.8 ± 1.1 % ^1

Q: What about the “Af + As + C (total amplitude)” value [4] of the same compound?
A: 3907 ± 230 pA ^6

Q: What about the “Af, fast” value [4] of the same compound?
A: −809 pA

Q: What about the “As (slow amplitude, share of current)” value [4] of the same compound?
A: 48.6 ± 2.6 % ^3

Q: What about the “As, slow” value [4] of the same compound?
A: −2899 pA

Q: What about the “C (plateau, share of current)” value [4] of the same compound?
A: 34.5 ± 2.8 % ^5

Q: And the “Tf (fast decay time constant)” value [4]?
A: 449 ± 30 (msec) ^2

Q: And the “Tf, fast” value [4]?
A: 0.47 s

Q: What about the “Ts (slow decay time constant)” value [4] of the same compound?
A: 5592 ± 509 (msec) ^4

Q: What about the “Ts, slow” value [4] of the same compound?
A: 6.98 s

Q: And the plateau [4]?
A: −943 pA

Q: And the decay time constant (hα3α5β4)?
A: 563 ms

Q: Which results are given for C[N+]1(C)CCN(c2ccccc2)CC1.[I-] [DMPP, 1,1-dimethyl-4-phenylpiperazinium iodide]?
A: Hill coefficient [3]: 1.91 ± 0.06; EC50 ([3]; EC50): 19 ± 0.76 µM; EC50 ([3]; fictitious EC50): 16.1 µM; EC50 [5]: 11 ± 1.79 µM; Hill coefficient [5]: 1.21 ± 0.12; EC50 [4]: 23 ± 1.17 µM; Hill coefficient [4]: 1.79 ± 0.08; EC50 ([4]; read-out: fictitious EC50): 39.2 µM

Q: Which “Peak currents in response to 10 mM choline in the presence of PNU-120596” value (α7 receptors) does the source give for COc1cc(OC)c(NC(=O)Nc2cc(C)on2)cc1Cl [PNU-120596] here?
A: 1688 ± 204 pA/pF

Q: And the “choline-induced currents with 10 μM PNU-120596 versus without” value (α7 nAChRs [1])?
A: significantly larger

Q: What about the “peak currents in response to 300 μM ACh in the presence of 10 μM PNU-120596” value (“peak currents in response to 300 μM ACh” for short) (α7 nAChRs [6]; n = 13) of the same compound?
A: somewhat reduced

Q: And the “choline-induced currents with 10 μM PNU-120596 versus without” value (α7 nAChRs [7])?
A: significantly larger

Q: What about the “peak currents in response to 300 μM ACh” value (α7 nAChRs [2]; n = 14) of the same compound?
A: somewhat enhanced

Q: And the “choline-induced currents with 10 μM PNU-120596 versus without” value [8]?
A: not significantly different

Q: What about the “peak currents in response to 300 μM ACh” value ([8]; n = 26) of the same compound?
A: somewhat enhanced

Q: For CCN1C[C@]2(COC(=O)c3ccccc3N3C(=O)C[C@H](C)C3=O)CC[C@H](OC)[C@@]34[C@@H]5C[C@H]6[C@H](OC)[C@@H]5[C@](O)(C[C@@H]6OC)[C@@](O)([C@@H](OC)[C@H]23)[C@@H]14 [MLA, methyllycaconitine], which “effect of MLA on peak currents in response to 500 μM ACh” value (α7 nAChRs [6]) is on record?
A: unaffected

Q: And the “effect of MLA on peak currents in response to 500 μM ACh” value (α7 nAChRs [2])?
A: unaffected

Q: With Clc1ccc(C2CC3CCC2N3)cn1 (racemic) [[^3H]-epibatidine, [5,6.bicycloheptyl-^3H](+/−)epibatidine] as the compound, how does the “Bmax of [3H]-epibatidine binding” value ([9]; averaged from 4 experiments, P18 WT SCG membranes) read?
A: 345.8 ± 25.6 fmol/mg protein

Q: What about the “Bmax of [3H]-epibatidine binding” value ([9]; single experiment shown in Fig. 1A) of the same compound?
A: 371.2 ± 13.5 fmol/mg protein

Q: What about the Kd [10] of the same compound?
A: 0.137 nM
